# Measured values: publication PMC6804253, “Predicting and Experimentally Validating Hot-Spot Residues at Protein–Protein Interfaces” (ACS Chemical Biology, 2019)
# Like-named read-outs stand apart in the source and are kept apart here.
# Tests used:
# [1] = system: PPIs of the SKEMPI data set (by PDBID); settings: ref SKEMPI, cited from earlier work; for sk_ddG_kJ (SKEMPI experimental ΔΔG) / sk_ddG_kJ (SKEMPI experimental ΔΔG, mutation to alanine) / sk_ddG_kJ: single mutation to alanine; for sk_ddG_kJ (SKEMPI experimental ΔΔG): complex given by PDBID; for sk_ddG_kJ (SKEMPI experimental ΔΔG, mutation to alanine): sheet sortedByGroup, r_group DERKH; for sk_ddG_kJ (SKEMPI experimental ΔΔG of binding, mutation to alanine): single mutation to alanine in the complex of the given PDBID; for sk_ddG_kJ: SKEMPI experimental ΔΔG of binding
# [2] = system: PPIs of the SKEMPI data set (by PDBID); test: SKEMPI experimental ΔΔG, single mutations to alanine; assay type: binding; settings: for sk_class: class of the SKEMPI experimental ΔΔG
# [3] = class by ΔΔG threshold 4.184 kJ/mol, ref SKEMPI
# [4] = Positive / Neutral / Negative by ΔΔG threshold 4.184 kJ/mol, ref SKEMPI
# [5] = class by the 4.184 kJ/mol threshold, r_group DERKH
Substance,sk_ddG_kJ (SKEMPI experimental ΔΔG) ([1]; mutation by mut_pdb),sk_class [2],"sk_ddG_kJ (SKEMPI experimental ΔΔG, mutation to alanine) ([1]; PPI given by PDBID)","sk_class (class of the SKEMPI experimental ΔΔG) [2, 3]",further results
1A22 SA184A,-0.21 kJ,Neutral (neutral (little effect) 4.184 kJ/mol < ΔΔG > −4.184 kJ/mol),,,
1A22 SA57A,0.84 kJ,Neutral (neutral (little effect) 4.184 kJ/mol < ΔΔG > −4.184 kJ/mol),,,
1A22 QA68A,2.51 kJ,Neutral (neutral (little effect) 4.184 kJ/mol < ΔΔG > −4.184 kJ/mol),,,
1A22 EA66A,,,1.80 kJ,Neutral (neutral (little effect) 4.184 kJ/mol < ΔΔG > −4.184 kJ/mol),
1A22 QA69A,-0.21 kJ,Neutral (neutral (little effect) 4.184 kJ/mol < ΔΔG > −4.184 kJ/mol),,,
1A22 SA188A,-0.84 kJ,Neutral (neutral (little effect) 4.184 kJ/mol < ΔΔG > −4.184 kJ/mol),,,
1A22 KA168A,,,-0.84 kJ,Neutral (neutral (little effect) 4.184 kJ/mol < ΔΔG > −4.184 kJ/mol),
1A22 FA176A,,,,,"sk_ddG_kJ (SKEMPI experimental ΔΔG of binding, mutation to alanine) [1]: 7.95 kJ; sk_class (class of the SKEMPI experimental ΔΔG) [2, 4]: Positive (positive (a hot residue) ΔΔG ≥ 4.184 kJ/mol)"
1A22 RA16A,,,1.00 kJ,Neutral (neutral (little effect) 4.184 kJ/mol < ΔΔG > −4.184 kJ/mol),
1A22 RA178A,,,10.04 kJ,Positive (positive (a hot residue) ΔΔG ≥ 4.184 kJ/mol),
1A22 NA63A,1.26 kJ,Neutral (neutral (little effect) 4.184 kJ/mol < ΔΔG > −4.184 kJ/mol),,,
1A4Y NB68A,,Neutral (neutral (little effect) 4.184 kJ/mol < ΔΔG > −4.184 kJ/mol),,,sk_ddG_kJ (SKEMPI experimental ΔΔG) ([1]; residue group SQNT): 0.50 kJ
1A4Y RB32A,,,,,sk_ddG_kJ ([1]; complex by PDBID): 3.77 kJ; sk_class ([2]; ref SKEMPI): Neutral (neutral (little effect) 4.184 kJ/mol < ΔΔG > −4.184 kJ/mol)
1A22 QA46A,0.42 kJ,Neutral (neutral (little effect) 4.184 kJ/mol < ΔΔG > −4.184 kJ/mol),,,
1A4Y RB5A,,,9.67 kJ,Positive (positive (a hot residue) ΔΔG ≥ 4.184 kJ/mol),
1A22 IA58A,,,,,"sk_ddG_kJ (SKEMPI experimental ΔΔG of binding, mutation to alanine) [1]: 6.86 kJ; sk_class (class of the SKEMPI experimental ΔΔG) [2, 4]: Positive (positive (a hot residue) ΔΔG ≥ 4.184 kJ/mol)"
1A22 FA54A,,,,,"sk_ddG_kJ (SKEMPI experimental ΔΔG of binding, mutation to alanine) [1]: 3.64 kJ; sk_class (class of the SKEMPI experimental ΔΔG) [2, 4]: Neutral (neutral (little effect) 4.184 kJ/mol < ΔΔG > −4.184 kJ/mol)"
1A22 EA174A,,,-3.77 kJ,Neutral (neutral (little effect) 4.184 kJ/mol < ΔΔG > −4.184 kJ/mol),
1A22 RA8A,,,0.84 kJ,Neutral (neutral (little effect) 4.184 kJ/mol < ΔΔG > −4.184 kJ/mol),
1A22 LA15A,,,,,"sk_ddG_kJ (SKEMPI experimental ΔΔG of binding, mutation to alanine) [1]: 0.63 kJ; sk_class (class of the SKEMPI experimental ΔΔG) [2, 4]: Neutral (neutral (little effect) 4.184 kJ/mol < ΔΔG > −4.184 kJ/mol)"
1GC1 KC8A,,,,,"sk_ddG_kJ (SKEMPI experimental ΔΔG, mutation to alanine) ([1]; complex by PDBID): 0.46 kJ; sk_class (class of the SKEMPI experimental ΔΔG) [2, 5]: Neutral (neutral (little effect) 4.184 kJ/mol < ΔΔG > −4.184 kJ/mol)"
1A22 SA55A,0.46 kJ,Neutral (neutral (little effect) 4.184 kJ/mol < ΔΔG > −4.184 kJ/mol),,,
1A4Y RB70A,,,,,sk_ddG_kJ ([1]; complex by PDBID): -1.05 kJ; sk_class ([2]; ref SKEMPI): Neutral (neutral (little effect) 4.184 kJ/mol < ΔΔG > −4.184 kJ/mol)
1A22 QA29A,-2.51 kJ,Neutral (neutral (little effect) 4.184 kJ/mol < ΔΔG > −4.184 kJ/mol),,,
1GC1 DC53A,,,,,"sk_ddG_kJ (SKEMPI experimental ΔΔG, mutation to alanine) ([1]; complex by PDBID): 1.26 kJ; sk_class (class of the SKEMPI experimental ΔΔG) [2, 5]: Neutral (neutral (little effect) 4.184 kJ/mol < ΔΔG > −4.184 kJ/mol)"
1A4Y RB31A,,,1.05 kJ,Neutral (neutral (little effect) 4.184 kJ/mol < ΔΔG > −4.184 kJ/mol),
1GC1 KC35A,,,,,"sk_ddG_kJ (SKEMPI experimental ΔΔG, mutation to alanine) ([1]; complex by PDBID): 1.34 kJ; sk_class (class of the SKEMPI experimental ΔΔG) [2, 5]: Neutral (neutral (little effect) 4.184 kJ/mol < ΔΔG > −4.184 kJ/mol)"
1A22 KA70A,,,2.18 kJ,Neutral (neutral (little effect) 4.184 kJ/mol < ΔΔG > −4.184 kJ/mol),
1GC1 KC1A,,,,,"sk_ddG_kJ (SKEMPI experimental ΔΔG, mutation to alanine) ([1]; complex by PDBID): 0.25 kJ; sk_class (class of the SKEMPI experimental ΔΔG) [2, 5]: Neutral (neutral (little effect) 4.184 kJ/mol < ΔΔG > −4.184 kJ/mol)"
1A22 FA191A,,,,,"sk_ddG_kJ (SKEMPI experimental ΔΔG of binding, mutation to alanine) [1]: 0.79 kJ; sk_class (class of the SKEMPI experimental ΔΔG) [2, 4]: Neutral (neutral (little effect) 4.184 kJ/mol < ΔΔG > −4.184 kJ/mol)"
